The nature of this series: recombinant barcode read abundance after kanamycin selection (control-corrected) (log10(CPM+1)); higher = more efficient recombination; sequences stand for … in AGTGCAGAGAAAATCGGCCAGTTTTCTCTGCCTGCAGTCCGCATGCCGT…AGATTTATGCAGCGGACTGCCTTTCTCCCAAAGTGATAAACCGGACAGTATCATGGACCGGTTTTCCCGGTAATCCGTATTTGCAAGGTTGGTTTCACT; site = the 11-nt target. The method, boiled down: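 In E. coli, a pooled library matched targets to IS621 bridge RNA target-binding loops and was introduced alongside a donor plasmid. Cells went onto chloramphenicol/ampicillin/kanamycin with 0.1 mM IPTG or onto chloramphenicol/ampicillin LB agar as control, in duplicate. Recombination efficiency, from recombinant-junction barcodes as counts per million, is averaged and control-corrected. It is reported as log10(CPM+1).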
In the case of “GTTTATACTTGGGTTCTAACCTGTTGCCT (site GTTTATACTAG)”, the “recombinant barcode read abundance (log10)” value turned out to be 0.305.
Regarding “GTTTCGTCTTGGGTTCTAACCTGTTGCCT (site GTTTCGACTAG)”, the “recombinant barcode read abundance (log10)” value is 0.0118.
Turning to “GTTTCGTCTTGGGTTCTAACCTGTTGCCT (site GTTTCGTCTAG)”, the “recombinant barcode read abundance (log10)” value came to 0.0924.
The same measure for “GTTTGACCTTGGGTTCTAACCTGTTGCGG (site GTTTGACCTCC)”: 1.47; for “GTTTGACCTTGGGTTCTAACCTGTTGCGG (site TAGCTGACTGG)”: 0.0274; for “GTTTGAGCTTGGGTTCTAACCTGTTGCCT (site GTTAGAGCTAG)”: 0.231.
The same measure for “GTTTGAGCTTGGGTTCTAACCTGTTGCCT (site GTTCGAGCTAG)”: 0.261.
The same measure for “GTTTGAGCTTGGGTTCTAACCTGTTGCCT (site GTTGGAGCTAG)”: 0.05; for “GTTTGAGCTTGGGTTCTAACCTGTTGCCT (site GTTTGAGCTAG)”: 0.625.
With “TAAAAGCCTTGGGTTCTAACCTGTTGCCT (site TAAAAGACTAG)”, the “recombinant barcode read abundance (log10)” value was 0.0773.
The same measure for “TAAAAGCCTTGGGTTCTAACCTGTTGCCT (site TAAAAGCCTAG)”: 0.42; for “TAAAAGCCTTGGGTTCTAACCTGTTGCCT (site TAAAAGGCTAG)”: 0.0822; for “TAAAAGCCTTGGGTTCTAACCTGTTGCCT (site TAAAAGTCTAG)”: 0.224.
As for “TAAATCACTTGGGTTCTAACCTGTTGCCG (site ACGTATGCTAT)”, the “recombinant barcode read abundance (log10)” value is 0.0241.
The same measure for “TAAATCACTTGGGTTCTAACCTGTTGCCG (site TAAATCACTCG)”: 0.281.
The same measure for “TAACGCTCTTGGGTTCTAACCTGTTGCCT (site AAACGCTCTAG)”: 0.0696; for “TAACGCTCTTGGGTTCTAACCTGTTGCCT (site TAACGCTCTAG)”: 1.2.
The same measure for “TAACGGGCTTGGGTTCTAACCTGTTGCCG (site TAAAGGGCTAG)”: 0.0666; for “TAACGGGCTTGGGTTCTAACCTGTTGCCG (site TAACGGGCTCG)”: 0.529.
As to “TAACGTACTTGGGTTCTAACCTGTTGCTT (site TAAAGTACTAA)”, the “recombinant barcode read abundance (log10)” value amounted to 0.137.
The same measure for “TAACGTACTTGGGTTCTAACCTGTTGCTT (site TAACGTACTAA)”: 0.641.
The same measure for “TAACGTACTTGGGTTCTAACCTGTTGCTT (site TAAGGTACTAA)”: 0.109.
For “TAACGTACTTGGGTTCTAACCTGTTGCTT (site TAATGTACTAA)”, the “recombinant barcode read abundance (log10)” value was 0.0185.
The same measure for “TAACTTACTTGGGTTCTAACCTGTTGCAT (site TAACATACTAT)”: 0.179; for “TAACTTACTTGGGTTCTAACCTGTTGCAT (site TAACCTACTAT)”: 0.0991; for “TAACTTACTTGGGTTCTAACCTGTTGCAT (site TAACGTACTAT)”: 0.0567.
The same measure for “TAACTTACTTGGGTTCTAACCTGTTGCAT (site TAACTTACTAT)”: 0.341; for “TAAGATGCTTGGGTTCTAACCTGTTGCGG (site GCGACATCTAG)”: 0.0149; for “TAAGATGCTTGGGTTCTAACCTGTTGCGG (site TAAGATGCTCC)”: 1.78.
The same measure for “TAAGGCCCTTGGGTTCTAACCTGTTGCTT (site TAAGGCCCTAA)”: 1.56; for “TAAGGCCCTTGGGTTCTAACCTGTTGCTT (site TCAGGCCCTAG)”: 0.33.
Turning to “TAAGTCCCTTGGGTTCTAACCTGTTGCCT (site AAAGTCCCTAG)”, the “recombinant barcode read abundance (log10)” value amounted to 0.233.
The same measure for “TAAGTCCCTTGGGTTCTAACCTGTTGCCT (site CAAGTCCCTAG)”: 0.583; for “TAAGTCCCTTGGGTTCTAACCTGTTGCCT (site GAAGTCCCTAG)”: 0.017; for “TAAGTCCCTTGGGTTCTAACCTGTTGCCT (site TAAGTCCCTAG)”: 1.9.
The same measure for “TAATCGCCTTGGGTTCTAACCTGTTGCCT (site TAATCGACTAG)”: 0.122; for “TAATCGCCTTGGGTTCTAACCTGTTGCCT (site TAATCGCCTAG)”: 0.126.
The same measure for “TAATCGCCTTGGGTTCTAACCTGTTGCCT (site TAATCGGCTAG)”: 0.102.
Take “TAATCGCCTTGGGTTCTAACCTGTTGCCT (site TAATCGTCTAG)”: the “recombinant barcode read abundance (log10)” value amounted to 0.
The same measure for “TAATCTCCTTGGGTTCTAACCTGTTGCGT (site GGTGGCTCTTG)”: 0.0934; for “TAATCTCCTTGGGTTCTAACCTGTTGCGT (site TAATCTCCTAC)”: 0.167.
The same measure for “TAATGACCTTGGGTTCTAACCTGTTGCTT (site TAATGACCTAA)”: 0.816; for “TAATGACCTTGGGTTCTAACCTGTTGCTT (site TAATGACCTAT)”: 0.123; for “TAATGTACTTGGGTTCTAACCTGTTGCTT (site TAAAGTACTAA)”: 0.0506.
The same measure for “TAATGTACTTGGGTTCTAACCTGTTGCTT (site TAACGTACTAA)”: 0.0626; for “TAATGTACTTGGGTTCTAACCTGTTGCTT (site TAAGGTACTAA)”: 0.195; for “TAATGTACTTGGGTTCTAACCTGTTGCTT (site TAATGTACTAA)”: 0.0687.
Consider “TACAACACTTGGGTTCTAACCTGTTGCGT (site GTAGGTCCTCG)”, for which the “recombinant barcode read abundance (log10)” value turned out to be 0.318.
With “TACAACACTTGGGTTCTAACCTGTTGCGT (site TACAACACTAC)”, the “recombinant barcode read abundance (log10)” value was determined as 1.71.
Regarding “TACAAGTCTTGGGTTCTAACCTGTTGCGG (site TACAAGGCTCC)”, the “recombinant barcode read abundance (log10)” value came to 0.0774.
The same measure for “TACAAGTCTTGGGTTCTAACCTGTTGCGG (site TACAAGTCTCC)”: 1.88; for “TACACGACTTGGGTTCTAACCTGTTGCGG (site TACACGACTCC)”: 1.51; for “TACACGACTTGGGTTCTAACCTGTTGCGG (site TACACTACTCG)”: 0.
The same measure for “TACAGAGCTTGGGTTCTAACCTGTTGCGG (site TAAAGAGCTCC)”: 0.363.
The same measure for “TACAGAGCTTGGGTTCTAACCTGTTGCGG (site TACAGAGCTCC)”: 2.36.
Turning to “TACAGAGCTTGGGTTCTAACCTGTTGCGG (site TAGAGAGCTCC)”, the “recombinant barcode read abundance (log10)” value stood at 0.127.
The same measure for “TACAGAGCTTGGGTTCTAACCTGTTGCGG (site TATAGAGCTCC)”: 0.488.
The same measure for “TACAGGACTTGGGTTCTAACCTGTTGCAG (site TACAGGACTCT)”: 2.15.
Regarding “TACAGGACTTGGGTTCTAACCTGTTGCAG (site TAGAGGACTCT)”, the “recombinant barcode read abundance (log10)” value came to 0.274.
Consider “TACAGTTCTTGGGTTCTAACCTGTTGCTT (site TACAGTTCTAA)”, for which the “recombinant barcode read abundance (log10)” value was 0.173.
The same measure for “TACAGTTCTTGGGTTCTAACCTGTTGCTT (site TACCATTCTAA)”: 0.107; for “TACATCCCTTGGGTTCTAACCTGTTGCCT (site TACATCCCTAG)”: 0.915; for “TACATCCCTTGGGTTCTAACCTGTTGCCT (site TACATCCCTCG)”: 0.0996.
The same measure for “TACATCCCTTGGGTTCTAACCTGTTGCCT (site TACATCCCTGG)”: 0.0929.
Consider “TACATCCCTTGGGTTCTAACCTGTTGCCT (site TACATCCCTTG)”, for which the “recombinant barcode read abundance (log10)” value is 0.0395.
The same measure for “TACCCACCTTGGGTTCTAACCTGTTGCAG (site CCGAATTCTAA)”: 0.159; for “TACCCACCTTGGGTTCTAACCTGTTGCAG (site TACCCACCTCT)”: 2.41.
Consider “TACCCTACTTGGGTTCTAACCTGTTGCTA (site TACCCGCCTTA)”, for which the “recombinant barcode read abundance (log10)” value turned out to be 0.146.
“TACCCTACTTGGGTTCTAACCTGTTGCTA (site TACCCTACTTA)”: the “recombinant barcode read abundance (log10)” value worked out at 0.736.
The same measure for “TACCGAGCTTGGGTTCTAACCTGTTGCTG (site CCTGTCACTTG)”: 0.377; for “TACCGAGCTTGGGTTCTAACCTGTTGCTG (site TACCGAGCTCA)”: 0.604; for “TACCGCTCTTGGGTTCTAACCTGTTGCTT (site TACAGCTCTAA)”: 0.0488.
The same measure for “TACCGCTCTTGGGTTCTAACCTGTTGCTT (site TACCGCTCTAA)”: 1.01; for “TACCGCTCTTGGGTTCTAACCTGTTGCTT (site TACGGCTCTAA)”: 0.043; for “TACCGCTCTTGGGTTCTAACCTGTTGCTT (site TACTGCTCTAA)”: 0.158.
“TACCGTCCTTGGGTTCTAACCTGTTGCAT (site TACCGTCCTAT)”: the “recombinant barcode read abundance (log10)” value is 1.18.
As for “TACCGTCCTTGGGTTCTAACCTGTTGCAT (site TATCGTCCTAT)”, the “recombinant barcode read abundance (log10)” value was 0.155.

Values taken from the supplement of paper PMC11208160.
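Also: IS621 recombinase and bridge RNA in Escherichia coli cells.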
